Experimental data from patent US6525001B1, “Substituted pyrimidine and pyridine herbicides” (Mid-American Commercialization Corporation, priority 1997, dated 2003).

Legend:
Format in all cases: in vivo
[1] = system: eastern black nightshade (Solanum ptycanthum); test: Test C; details: PREEMERGENCE
[2] = system: velvetleaf (Abutilon theophrasti); test: Test C; design: key: 0 was no effect; 100 was complete control; details: PREEMERGENCE
[3] = system: ladysthumb smartweed (Polygonum persicaria); test: Test C; details: PREEMERGENCE, Rate 70 g/ha
[4] = system: wild poinsettia (Euphorbia heterophylla); test: Test C; design: key: 0 was no effect; 100 was complete control; details: PREEMERGENCE
[5] = system: alexandergrass (Brachiaria plantaginea); test: Test E pre-/postemergence/post directed
Procedure, shortened: (§1)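 Greenhouse pot-grown plants; compound in non-phytotoxic solvent with surfactant applied preemergence to soil within one day of planting, postemergence at two to four leaf stage (three to twenty cm), or post-directed to plant base and soil. Visual injury rated 13 to 21 days after application, 0 (none) to 100 (complete control).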

[6] = system: itchgrass (Rottboellia exaltata); test: Test E pre-/postemergence/post directed
Procedure, shortened: as §1

[7] = system: Spanishneedles (Bidens bipinnata); test: Test E pre-/postemergence/post directed
Procedure, shortened: as §1

[8] = system: bermudagrass (Cynodon dactylon); test: Test E pre-/postemergence/post directed
Procedure, shortened: as §1

[9] = system: pitted morningglory (Ipomoea lacunosa); test: Test E pre-/postemergence/post directed; details: POSTEMERGENCE
Procedure, shortened: as §1

[10] = system: large crabgrass (Digitaria sanguinalis); test: Test E pre-/postemergence/post directed
Procedure, shortened: as §1

[11] = system: common groundsel (Senecio vulgaris); test: Test E pre-/postemergence/post directed; details: POSTEMERGENCE
Procedure, shortened: as §1

[12] = system: johnson grass (Sorghum halepense); test: Test E pre-/postemergence/post directed
Procedure, shortened: as §1

[13] = system: sandbur (Cenchrus echinatus); test: Test E pre-/postemergence/post directed
Procedure, shortened: as §1

[14] = system: common ragweed (Ambrosia elatior); test: Test E pre-/postemergence/post directed; details: POSTEMERGENCE
Procedure, shortened: as §1

[15] = system: surinam grass (Brachiaria decumbens); test: Test E pre-/postemergence/post directed
Procedure, shortened: as §1

[16] = system: large crabgrass (Digitaria sanguinalis); test: Test C; design: key: 0 was no effect; 100 was complete control; details: PREEMERGENCE
[17] = system: ivyleaf morningglory (Ipomoea hederacea); test: Test C; design: key: 0 was no effect; 100 was complete control; details: PREEMERGENCE
[18] = system: lambsquarters (Chenopodium album); test: Test C; design: key: 0 was no effect; 100 was complete control; details: PREEMERGENCE
[19] = system: purple nutsedge (Cyperus rotundus); test: Test E pre-/postemergence/post directed; design: key: 0 is no injury; 100 is complete control
Procedure, shortened: as §1

[20] = system: sandbur (Cenchrus echinatus); test: Test E pre-/postemergence/post directed; design: key: 0 is no injury; 100 is complete control; details: POSTEMERGENCE, Rate 32 g/ha
Procedure, shortened: as §1

[21] = system: arrowleaf sida (Sida rhombifolia); test: Test C; design: key: 0 was no effect; 100 was complete control; details: PREEMERGENCE

With `Cc1cnc(-n2ccc(C(F)(F)F)n2)nc1Cc1cccc(C(F)(F)F)c1` [Example 2, 5-methyl-4-[[3-(trifluoromethyl)phenyl]methyl]-2-[3-(trifluoromethyl)-1H-pyrazol-1-yl]pyrimidine] the “Plant response rating, E. blacknightsh” value ([1]; Rate 35 g/ha) was 5, the “Plant response rating, E. blacknightsh” value ([1]; Rate 70 g/ha) was 5 and the “Plant response rating, E. blacknightsh” value ([1]; Rate 140 g/ha) was 90. For the same compound, the “Plant response rating, Velvetleaf” value ([2]; Rate 35 g/ha) was 0, the “Plant response rating, Velvetleaf” value ([2]; Rate 70 g/ha) was 5 and the “Plant response rating, Velvetleaf” value ([2]; Rate 140 g/ha) was 50. The “Plant response rating, Ladysthumb” value [3] was 30, the “Plant response rating, Wild poinsettia” value ([4]; Rate 35 g/ha) was 0 and the “Plant response rating, Wild poinsettia” value ([4]; Rate 70 g/ha) was 5. The “Plant response rating, Wild poinsettia” value ([4]; Rate 140 g/ha) was 45, the “Plant response rating, Alexandergrass” value ([5]; POSTEMERGENCE, Rate 32 g/ha) was 20 and the “Plant response rating, Alexandergrass” value ([5]; POSTEMERGENCE, Rate 64 g/ha) was 30. For the same compound, the “Plant response rating, Alexandergrass” value ([5]; POSTEMERGENCE, Rate 125 g/ha) was 30, the “Plant response rating, Alexandergrass” value ([5]; POSTEMERGENCE, Rate 250 g/ha) was 80 and the “Plant response rating, Alexandergrass” value ([5]; POSTEMERGENCE, Rate 500 g/ha) was 95. The “Plant response rating, Alexandergrass” value ([5]; PREEMERGENCE, Rate 32 g/ha) was 50, the “Plant response rating, Alexandergrass” value ([5]; PREEMERGENCE, Rate 64 g/ha) was 90 and the “Plant response rating, Itchgrass” value ([6]; POSTEMERGENCE, Rate 32 g/ha) was 40. For the same compound, the “Plant response rating, Itchgrass” value ([6]; POSTEMERGENCE, Rate 64 g/ha) was 40, the “Plant response rating, Itchgrass” value ([6]; POSTEMERGENCE, Rate 125 g/ha) was 75 and the “Plant response rating, Itchgrass” value ([6]; POSTEMERGENCE, Rate 250 g/ha) was 90. For the same compound, the “Plant response rating, Itchgrass” value ([6]; POSTEMERGENCE, Rate 500 g/ha) was 95, the “Plant response rating, Itchgrass” value ([6]; PREEMERGENCE, Rate 32 g/ha) was 70 and the “Plant response rating, Itchgrass” value ([6]; PREEMERGENCE, Rate 64 g/ha) was 75. The “Plant response rating, Itchgrass” value ([6]; PREEMERGENCE, Rate 125 g/ha) was 75, the “Plant response rating, Itchgrass” value ([6]; PREEMERGENCE, Rate 250 g/ha) was 95 and the “Plant response rating, Spanishneedles” value ([7]; POSTEMERGENCE, Rate 32 g/ha) was 60. For the same compound, the “Plant response rating, Spanishneedles” value ([7]; POSTEMERGENCE, Rate 64 g/ha) was 60, the “Plant response rating, Spanishneedles” value ([7]; POSTEMERGENCE, Rate 125 g/ha) was 40 and the “Plant response rating, Spanishneedles” value ([7]; POSTEMERGENCE, Rate 500 g/ha) was 70. The “Plant response rating, Spanishneedles” value ([7]; PREEMERGENCE, Rate 32 g/ha) was 80, the “Plant response rating, Bermudagrass” value ([8]; POSTEMERGENCE, Rate 32 g/ha) was 10 and the “Plant response rating, Bermudagrass” value ([8]; POSTEMERGENCE, Rate 64 g/ha) was 20. For the same compound, the “Plant response rating, Bermudagrass” value ([8]; POSTEMERGENCE, Rate 125 g/ha) was 35, the “Plant response rating, Bermudagrass” value ([8]; POSTEMERGENCE, Rate 250 g/ha) was 50 and the “Plant response rating, Bermudagrass” value ([8]; POSTEMERGENCE, Rate 500 g/ha) was 75. The “Plant response rating, Bermudagrass” value ([8]; PREEMERGENCE, Rate 32 g/ha) was 98, the “Plant response rating, P. morninglory” value ([9]; Rate 32 g/ha) was 80 and the “Plant response rating, P. morninglory” value ([9]; Rate 64 g/ha) was 80. The “Plant response rating, P. morninglory” value ([9]; Rate 125 g/ha) was 80, the “Plant response rating, P. morninglory” value ([9]; Rate 250 g/ha) was 90 and the “Plant response rating, P. morninglory” value ([9]; Rate 500 g/ha) was 90. For the same compound, the “Plant response rating, Large crabgrass” value ([10]; POSTEMERGENCE, Rate 32 g/ha) was 35, the “Plant response rating, Large crabgrass” value ([10]; POSTEMERGENCE, Rate 64 g/ha) was 35 and the “Plant response rating, Large crabgrass” value ([10]; POSTEMERGENCE, Rate 125 g/ha) was 75. The “Plant response rating, Large crabgrass” value ([10]; POSTEMERGENCE, Rate 250 g/ha) was 80, the “Plant response rating, Large crabgrass” value ([10]; POSTEMERGENCE, Rate 500 g/ha) was 90 and the “Plant response rating, Large crabgrass” value ([10]; PREEMERGENCE, Rate 32 g/ha) was 98. The “Plant response rating, Com. groundsel” value ([11]; Rate 64 g/ha) was 20, the “Plant response rating, Com. groundsel” value ([11]; Rate 125 g/ha) was 20 and the “Plant response rating, Com. groundsel” value ([11]; Rate 250 g/ha) was 40. The “Plant response rating, Com. groundsel” value ([11]; Rate 500 g/ha) was 75, the “Plant response rating, Johnsongrass” value ([12]; POSTEMERGENCE, Rate 32 g/ha) was 10 and the “Plant response rating, Johnsongrass” value ([12]; POSTEMERGENCE, Rate 64 g/ha) was 60. The “Plant response rating, Johnsongrass” value ([12]; POSTEMERGENCE, Rate 125 g/ha) was 60, the “Plant response rating, Johnsongrass” value ([12]; POSTEMERGENCE, Rate 250 g/ha) was 80 and the “Plant response rating, Johnsongrass” value ([12]; POSTEMERGENCE, Rate 500 g/ha) was 95. The “Plant response rating, Johnsongrass” value ([12]; PREEMERGENCE, Rate 32 g/ha) was 65, the “Plant response rating, Johnsongrass” value ([12]; PREEMERGENCE, Rate 64 g/ha) was 98 and the “Plant response rating, Johnsongrass” value ([12]; PREEMERGENCE, Rate 125 g/ha) was 85. For the same compound, the “Plant response rating, Sandbur” value ([13]; POSTEMERGENCE, Rate 64 g/ha) was 10, the “Plant response rating, Sandbur” value ([13]; POSTEMERGENCE, Rate 125 g/ha) was 10 and the “Plant response rating, Sandbur” value ([13]; POSTEMERGENCE, Rate 250 g/ha) was 50. For the same compound, the “Plant response rating, Sandbur” value ([13]; POSTEMERGENCE, Rate 500 g/ha) was 80, the “Plant response rating, Sandbur” value ([13]; PREEMERGENCE, Rate 32 g/ha) was 20 and the “Plant response rating, Sandbur” value ([13]; PREEMERGENCE, Rate 64 g/ha) was 65. The “Plant response rating, Sandbur” value ([13]; PREEMERGENCE, Rate 125 g/ha) was 90, the “Plant response rating, Com. ragweed” value ([14]; Rate 32 g/ha) was 50 and the “Plant response rating, Com. ragweed” value ([14]; Rate 125 g/ha) was 75. The “Plant response rating, Com. ragweed” value ([14]; Rate 250 g/ha) was 75, the “Plant response rating, Com. ragweed” value ([14]; Rate 500 g/ha) was 75 and the “Plant response rating, Surinam grass” value ([15]; POSTEMERGENCE, Rate 32 g/ha) was 35. The “Plant response rating, Surinam grass” value ([15]; POSTEMERGENCE, Rate 64 g/ha) was 50, the “Plant response rating, Surinam grass” value ([15]; POSTEMERGENCE, Rate 125 g/ha) was 50 and the “Plant response rating, Surinam grass” value ([15]; POSTEMERGENCE, Rate 250 g/ha) was 70. The “Plant response rating, Surinam grass” value ([15]; POSTEMERGENCE, Rate 500 g/ha) was 80, the “Plant response rating, Surinam grass” value ([15]; PREEMERGENCE, Rate 32 g/ha) was 50 and the “Plant response rating, Surinam grass” value ([15]; PREEMERGENCE, Rate 64 g/ha) was 90. For the same compound, the “Plant response rating, Large crabgrass” value ([16]; Rate 35 g/ha) was 0, the “Plant response rating, Large crabgrass” value ([16]; Rate 70 g/ha) was 5 and the “Plant response rating, Large crabgrass” value ([16]; Rate 140 g/ha) was 100. For the same compound, the “Plant response rating, I. morningglory” value ([17]; Rate 35 g/ha) was 0, the “Plant response rating, I. morningglory” value ([17]; Rate 70 g/ha) was 5 and the “Plant response rating, I. morningglory” value ([17]; Rate 140 g/ha) was 5. The “Plant response rating, Lambsquarters” value ([18]; Rate 35 g/ha) was 0, the “Plant response rating, Lambsquarters” value ([18]; Rate 140 g/ha) was 100 and the “Plant response rating, Purple nutsedge” value ([19]; POSTEMERGENCE, Rate 32 g/ha) was 0. For the same compound, the “Plant response rating, Purple nutsedge” value ([19]; POSTEMERGENCE, Rate 64 g/ha) was 0, the “Plant response rating, Purple nutsedge” value ([19]; POSTEMERGENCE, Rate 125 g/ha) was 0 and the “Plant response rating, Purple nutsedge” value ([19]; POSTEMERGENCE, Rate 250 g/ha) was 0. For the same compound, the “Plant response rating, Purple nutsedge” value ([19]; POSTEMERGENCE, Rate 500 g/ha) was 0, the “Plant response rating, Purple nutsedge” value ([19]; PREEMERGENCE, Rate 32 g/ha) was 0 and the “Plant response rating, Purple nutsedge” value ([19]; PREEMERGENCE, Rate 64 g/ha) was 0. The “Plant response rating, Purple nutsedge” value ([19]; PREEMERGENCE, Rate 125 g/ha) was 0, the “Plant response rating, Purple nutsedge” value ([19]; PREEMERGENCE, Rate 250 g/ha) was 0 and the “Plant response rating, Purple nutsedge” value ([19]; PREEMERGENCE, Rate 500 g/ha) was 0. For the same compound, the “Plant response rating, Sandbur” value [20] was 0, the “Plant response rating, Arrowleaf sida” value ([21]; Rate 35 g/ha) was 10 and the “Plant response rating, Arrowleaf sida” value ([21]; Rate 70 g/ha) was 20. The “Plant response rating, Arrowleaf sida” value ([21]; Rate 140 g/ha) was 100.
